Nc1nc(=O)[nH]cc1F
solubility (mole fraction)
Conditions	in 1,4-dioxane	in 2-butanone	in DMF	in DMSO	in acetone	in acetonitrile	in ethyl acetate	in isopropanol	in n-butanol	in n-propanol
283.15 K	1.13e-05	4.37e-05	0.00113	0.00559	6.9e-05	7e-06	3.5e-06	0.00016	0.000282	0.000222
288.15 K	1.51e-05	5.91e-05	0.00127	0.00611	8.62e-05	9.6e-06	4.5e-06	0.000204	0.000332	0.000272
293.15 K	1.92e-05	7.74e-05	0.00146	0.00675	0.000107	1.31e-05	6.2e-06	0.000253	0.000399	0.000334
298.15 K	2.37e-05	9.76e-05	0.00169	0.00754	0.000131	1.77e-05	8.6e-06	0.000314	0.000477	0.000406
303.15 K	2.82e-05	0.000121	0.00193	0.00838	0.000158	2.23e-05	1.14e-05	0.000382	0.000567	0.000489
308.15 K	3.43e-05	0.000149	0.0022	0.00932	0.000192	2.84e-05	1.46e-05	0.000461	0.000674	0.000577
313.15 K	4.17e-05	0.000184	0.00252	0.0103	0.000224	3.58e-05	1.93e-05	0.000548	0.000787	0.000677
318.15 K	5.08e-05	0.000223	0.00287	0.0115	0.000273	4.5e-05	2.45e-05	0.000643	0.000916	0.000792
323.15 K	6.07e-05	0.000271	0.00329	0.0129	0.000321	5.67e-05	3.11e-05	0.000757	0.00107	0.000923
